Measurements: patent publication US10526336B2, “Fused heteroaryl derivatives as orexin receptor antagonists” (Merck Sharp & Dohme Corp., priority 2014, dated 2020)

Molecular target: human orexin-2 receptor (Homo sapiens (Human), UniProt O43614)
Assay: FLIPR Ca2+ Flux Assay, orexin-2 receptor antagonism in CHO cells
Type: cell-based
Conditions: CHO cells expressing the human orexin-2 receptor; agonist 70 pM Ala-6,12 orexin-A; read-out: hOX2 FLIPR IC50
Description: The utility of the compounds in accordance with the present invention as orexin receptor OX1R and/or OX2R antagonists may be readily determined without undue experimentation by methodology well known in the art, including the “FLIPR Ca^2+ Flux Assay” (Okumura et al., Biochem. Biophys. Res. Comm. 280:976-981, 2001). In a typical experiment the OX1 and OX2 receptor antagonistic activity of the compounds of the present invention was determined in accordance with the following experimental method. For intracellular calcium measurements, Chinese hamster ovary (CHO) cells expressing the rat orexin-1 receptor or the human orexin-2 receptor, are grown in Iscove's modified DMEM containing 2 mM L-glutamine, […], 1% hypoxanthine-thymidine supplement, 100 U/ml penicillin, 100 μg/ml streptomycin and 10% heat-inactivated fetal calf serum (FCS). The cells are seeded at 20,000 cells/well into Becton-Dickinson black 384-well clear bottom sterile plates coated with poly-D-lysine. All reagents are from GIBCO-Invitrogen Corp. The seeded plates are incubated overnight at 37° C. and 5% CO2. Ala-6,12 human orexin-A as the agonist is prepared as a 1 mM stock solution in 1% bovine serum albumin (BSA) and diluted in assay buffer (HBSS containing 20 mM HEPES, 0.1% BSA and 2.5 mM probenecid, pH7.4) for use in the assay at a final concentration of 70 pM. Test compounds are prepared as 10 mM stock solution in DMSO, then diluted in 384-well plates, first in DMSO, then assay buffer. On the day of the assay, cells are washed 3 times with 100 μl assay buffer and then incubated for 60 min (37° C., 5% CO2) in 60 μl assay buffer containing […] Fluo-4AM ester, 0.02% pluronic acid, and 1% BSA. The dye loading solution is then aspirated and cells are washed 3 times with 100 μl assay buffer. 30 μl of that same buffer is left in each well. Within the Fluorescent Imaging Plate Reader (FLIPR, Molecular Devices), test compounds are added to the plate in a volume of 25 μl, incubated for 5 min and finally 25 μl of agonist is added. Fluorescence is measured for each well at 1 second intervals for 5 minutes and the height of each fluorescence peak is compared to the height of the fluorescence peak induced by 70 pM Ala-6,12 orexin-A with buffer in place of antagonist. For each antagonist, IC50 value (the concentration of compound needed to inhibit 50% of the agonist response) is determined. Alternatively, compound potency can be assessed by a radioligand binding assay (described in Bergman et. al. Bioorg. Med. Chem. Lett. 2008, 18, 1425-1430) in which the inhibition constant (Ki) is determined in membranes prepared from CHO cells expressing either the OX1 or OX2 receptor. The intrinsic orexin receptor antagonist activity of a compound which may be used in the present invention may be determined by these assays.

Sequence of human orexin-2 receptor (O43614 whole entry): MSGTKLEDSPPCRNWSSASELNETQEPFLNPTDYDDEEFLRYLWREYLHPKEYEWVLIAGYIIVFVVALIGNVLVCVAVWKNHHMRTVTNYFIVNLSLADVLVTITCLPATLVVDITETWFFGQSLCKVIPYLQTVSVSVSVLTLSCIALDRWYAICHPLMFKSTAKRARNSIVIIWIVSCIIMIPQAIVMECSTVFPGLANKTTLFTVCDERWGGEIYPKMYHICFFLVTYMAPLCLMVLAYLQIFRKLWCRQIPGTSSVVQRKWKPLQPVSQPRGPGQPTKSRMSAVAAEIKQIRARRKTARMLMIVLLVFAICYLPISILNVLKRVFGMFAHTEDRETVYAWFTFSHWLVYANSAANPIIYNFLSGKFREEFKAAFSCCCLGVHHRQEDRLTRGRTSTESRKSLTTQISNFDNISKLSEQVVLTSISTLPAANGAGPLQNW

SMILES | IC50 [nM]
C[C@@H]1CC[C@@H](Nc2nccn3c(Cl)cnc23)CN1C(=O)c1ccccc1-n1nccn1 [Example 30, (2-(2H-1,2,3-triazol-2-yl)phenyl)((2R,5R)-5-((3-chloroimidazo[1,2-a]pyrazin-8-yl)amino)-2-methylpiperidin-1-yl)methanone] | 13.9
Cc1cn2ccnc(O[C@@H]3CC[C@@H](C)N(C(=O)c4ccccc4CS(C)(=O)=O)C3)c2n1 [Example 12, ((2R,5R)-2-methyl-5-((2-methylimidazo[1,2-α]pyrazin-8-yl)oxy)piperidin-1-yl)(2-((methylsulfonyl)methyl)phenyl)methanone] | 46.2
C[C@@H]1CC[C@@H](Oc2nccn3c(C#N)cnc23)CN1C(=O)c1ccccc1-n1nccn1 [Example 35, 8-(((3R,6R)-1-(2-(2H-1,2,3-triazol-2-yl)benzoyl)-6-methylpiperidin-3-yl)oxy)imidazo[1,2-a]pyrazine-3-carbonitrile] | 73.7
C[C@@H]1CC[C@@H](Oc2nccn3c(C(O)C(F)F)cnc23)CN1C(=O)c1ccccc1-n1nccn1 (stereo partly drawn) [Example 67, (2-(2H-1,2,3-triazol-2-yl)phenyl)((2R,5R)-5-((3-(2,2-difluoro-1-hydroxyethyl)imidazo[1,2-a]pyrazin-8-yl)oxy)-2-methylpiperidin-1-yl)methanone] | 182
C[C@@H]1CC[C@@H](Oc2nccn3c(C(F)F)cnc23)CN1C(=O)c1nccnc1-n1cccn1 [Example 46, (3-(1H-pyrazol-1-yl)pyrazin-2-yl)((2R,5R)-5-((3-(difluoromethyl)imidazo[1,2-α]pyrazin-8-yl)oxy)-2-methylpiperidin-1-yl)methanone] | 61.9
C[C@@H]1CC[C@@H](Oc2nccn3c(C(F)F)cnc23)CN1C(=O)c1ccccc1CS(C)(=O)=O [Example 39, ((2R,5R)-5-((3-(difluoromethyl)imidazo[1,2-a]pyrazin-8-yl)oxy)-2-methylpiperidin-1-yl)(2-((methylsulfonyl)methyl)phenyl)methanone] | 62.6
C[C@@H]1CC[C@@H](Oc2nccn3c(C(F)F)cnc23)CN1C(=O)c1ccsc1-c1ncccn1 [Example 56, ((2R,5R)-5-((3 (difluoromethyl)imidazo [1,2-α]pyrazin-8-yl)oxy)-2-methylpiperidin-1-yl)(2-(pyrimidin-2-yl)thiophen-3-yl)methanone] | 53.7
C[C@@H]1CC[C@@H](Oc2cccn3nccc23)CN1C(=O)c1ccccc1-n1nccn1 [Example 90, (2-(2H-1,2,3-triazol-2-yl)phenyl)((2R,5R)-2-methyl-5-(pyrazolo[1,5-a]pyridin-4-yloxy)piperidin-1-yl)methanone] | 125
C[C@@H]1CC[C@@H](Oc2nccn3c(C(F)(F)F)cnc23)CN1C(=O)c1cccnc1OCC(F)F [Example 64, (2-(2,2-difluoroethoxy)pyridin-3-yl)((2R,5R)-2-methyl-5-((3-(trifluoromethyl)imidazo [1,2-α]pyrazin-8-yl)oxy)piperidin-1-yl)methanone] | 17.4
C[C@@H]1CC[C@@H](Oc2nccn3c(C(F)(F)F)cnc23)CN1C(=O)c1ccsc1-n1nccn1 [Example 58, (2-(2H-1,2,3-triazol-2-yl)thiophen-3-yl)((2R,5R)-2-methyl-5-((3-(trifluoromethyl)imidazo[1,2-a]pyrazin-8-yl)oxy)piperidin-1-yl)methanone] | 20.4
Cc1cn2ccnc(O[C@@H]3CC[C@@H](C)N(C(=O)c4ccsc4-c4ncccn4)C3)c2n1 [Example 14, ((2R,5R)-2-methyl-5-((2-methylimidazo[1,2-α]pyrazin-8-yl)oxy)piperidin-1-yl) (2-(pyrimidin-2-yl)thiophen-3-yl)methanone] | 36.8
C[C@@H]1CC[C@@H](Oc2nccn3c(C(F)F)cnc23)CN1C(=O)c1ccccc1-c1cnccn1 [Example 53, ((2R,5R)-5-((3-(difluoromethyl)imidazo[1,2-α]pyrazin-8-yl)oxy)-2-methylpiperidin-1-yl)(2-(pyrazin-2-yl)phenyl)methanone] | 21.3
C[C@@H]1CC[C@@H](Oc2nccn3c(C(F)(F)F)cnc23)CN1C(=O)c1cccnc1-n1cccn1 [Example 65, (2-(1H-pyrazol-1-yl)pyridin-3-yl) ((2R,5R)-2-methyl-5-((3-(trifluoromethyl)imidazo [1,2-α]pyrazin-8-yl)oxy)piperidin-1-yl)methanone] | 24
C[C@@H]1CC[C@@H](Oc2nccn3nccc23)CN1C(=O)c1nccnc1-c1ccccn1 [Example 78, ((2R,5R)-2-methyl-5-(pyrazolo[1,5-α]pyrazin-4-yloxy)piperidin-1-yl)(3-(pyridin-2-yl)pyrazin-2-yl)methanone] | 59.1
C[C@@H]1CC[C@@H](Oc2nccn3cc(C(F)(F)F)nc23)CN1C(=O)c1ccccc1-n1nccn1 [Example 21, (2-(2H-1,2,3-triazol-2-yl)phenyl)((2R,5R)-2-methyl-5-((2-(trifluoromethyl)imidazo[1,2-a]pyrazin-8-yl)oxy)piperidin-1-yl)methanone] | 63.7
C[C@@H]1CC[C@@H](Oc2nccn3c(C(F)(F)F)cnc23)CN1C(=O)c1ncccc1-c1ccccc1 [Example 62, ((2R,5R)-2-methyl-5-((3-(trifluoromethyl)imidazo [1,2-α]pyrazin-8-yl)oxy)piperidin-1-yl)(3-phenylpyridin-2-yl)methanone] | 46.7
C[C@@H]1CC[C@@H](Oc2nccn3c(C(F)(F)F)cnc23)CN1C(=O)c1ccccc1-n1ncnn1 [Example 60, (2-(2H-tetrazol-2-yl)phenyl)((2R,5R)-2-methyl-5-((3-(trifluoromethyl)imidazo [1,2-α]pyrazin-8-yl)oxy)piperidin-1-yl)methanone] | 19
CC(C)c1cn2ccnc(O[C@@H]3CC[C@@H](C)N(C(=O)c4ccccc4-n4nccn4)C3)c2n1 [Example 20, (2-(2H-1,2,3-triazol-2-yl)phenyl)((2R,5R)-5-((2-isopropylimidazo[1,2-a]pyrazin-8-yl)oxy)-2-methylpiperidin-1-yl)methanone] | 49
C[C@@H]1CC[C@@H](Oc2nccc3c2ncn3C)CN1C(=O)c1ccccc1-n1nccn1 [Example 98, (2-(2H-1,2,3-triazol-2-yl)phenyl)((2R,5R)-2-methyl-5-((1-methyl-1H-imidazo[4,5-c]pyridin-4-yl)oxy)piperidin-1-yl)methanone] | 28.8
CCCc1ccccc1C(=O)N1C[C@H](Oc2nccn3ccnc23)CC[C@H]1C [Example 4, ((2R,5R)-5-(imidazo[1,2-a]pyrazin-8-yloxy)-2-methylpiperidin-1-yl)(2-propylphenyl)methanone] | 31.9
C[C@@H]1CC[C@@H](Oc2nccn3c(Cl)cnc23)CN1C(=O)c1ccccc1C1(C#N)CC1 [Example 28, 1-(2-((2R,5R)-5-((3-chloroimidazo[1,2-α]pyrazin-8-yl)oxy)-2-methylpiperidine-1-carbonyl)phenyl) cyclopropanecarbonitrile] | 9.5
CCOc1ccccc1C(=O)N1C[C@H](Oc2ccnc3ocnc23)CC[C@H]1C [Example 94, (2-ethoxyphenyl)((2R,5R)-2-methyl-5-(oxazolo[5,4-b]pyridin-7-yloxy)piperidin-1-yl)methanone] | 24.4
Cc1cn2ccnc(O[C@@H]3CC[C@@H](C)N(C(=O)c4cccnc4-c4ccccc4)C3)c2n1 [Example 17, ((2R,5R)-2-methyl-5-((2-methylimidazo [1,2-α]pyrazin-8-yl)oxy)piperidin-1-yl) (2-phenylpyridin-3-yl)methanone] | 68.4
Cc1cnc2c(O[C@@H]3CC[C@@H](C)N(C(=O)c4ccccc4-n4nccn4)C3)nccn12 [Example 34, (2-(2H-1,2,3-triazol-2-yl)phenyl)((2R,5R)-2-methyl-5-((3-methylimidazo[1,2-a]pyrazin-8-yl)oxy)piperidin-1-yl)methanone] | 16.3
C[C@@H]1CC[C@@H](Oc2nccn3nccc23)CN1C(=O)c1ccccc1-n1ncnn1 [Example 76, (2-(2H-tetrazol-2-yl)phenyl)((2R,5R)-2-methyl-5-(pyrazolo[1,5-α]pyrazin-4-yloxy)piperidin-1-yl)methanone] | 27.8
C[C@@H]1CC[C@@H](Oc2nccn3c(C(F)F)cnc23)CN1C(=O)c1cscc1-c1ncccn1 [Example 55, ((2R,5R)-5-((3-(difluoromethyl)imidazo [1,2-α]pyrazin-8-yl)oxy)-2-methylpiperidin-1-yl)(4-(pyrimidin-2-yl)thiophen-3-yl)methanone] | 44.9
